Laboratory results: patent US20230227466A1, “SUBSTITUTED THIENOPYRIMIDINES THAT INTERACT WITH THE RAS SUPERFAMILY FOR THE TREATMENT OF CANCERS, INFLAMMATORY DISEASES, RASOPATHIES, AND FIBROTIC DISEASE” (SHY Therapeutics, LLC, priority 2020, published 2023)

Experiments:
[1] = system: Akt phosphorylation in Panc-1 cells; experiment: Western AKT cell-based phosphorylation assay; design: species or system human; conditions: at 10 μM, values in brackets < > are activation %, not inhibition
Outline: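 Panc-1 cells starved overnight in 0.5% FBS, exposed to compound at 10 μM (0.3% DMSO) for 6 h at 37° C, then stimulated with 1.5 ng/ml EGF for 15 min. Lysates probed by western blot with anti-phospho-Akt (Ser473), equal protein loading checked by Ponceau S.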

[2] = system: ERK1/2 phosphorylation in Panc-1 cells; experiment: Western ERK1/2 cell-based phosphorylation assay; design: species or system human; conditions: at 10 μM, values in brackets < > are activation %, not inhibition
Outline: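 Panc-1 cells starved overnight in 0.5% FBS, then exposed 6 h at 37 °C to compound at 10 μM final (0.3% DMSO) or serial dilutions for IC50. Stimulation with 1.5 ng/ml EGF for 15 min; phospho-ERK1/2 (Thr202/Tyr204) read by western blot on equal protein loads.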

[3] = system: MIA-PaCa-2 pancreatic cancer cell line (KRAS G12C); experiment: Cell proliferation assay (CellTiter 96 Aqueous One); format: cell-based; conditions: Homo sapiens; for inhibition at 10 µM: MIA PaCa-2, read-out: % inh cell proliferation (10 μM) in MIA PaCa-2
Outline: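 After overnight attachment, compounds are added (10 μM final or serial dilutions) and left 2–4 days, with viability then measured by MTS.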

| SMILES | IC50 ([3]; MIA PaCa-2, MIA PaCa-2) [µM] | IC50 ([3]; MIA PaCa-2, MIA-PaCa-2, 2-4 days, 10% FBS) [µM] | % inh of AKT phosphorylation in PANC-1 [1] | % inh of ERK1/2 phosphorylation in PANC-1 [2] | inhibition at 10 µM [3] [%] |
| --- | --- | --- | --- | --- | --- |
| Cc1c(-c2ccn(C(C)C)n2)sc2nc(-c3nccn3C)nc(NCc3n[nH]c(=O)n3C)c12 [Compound 60, 5-(((6-(1-Isopropyl-1H-pyrazol-3-yl)-5-methyl-2-(1-methyl-1H-imidazol-2-yl)thieno[2,3-d]pyrimidin-4-yl)amino)methyl)-4-methyl-2,4-dihydro-3H-1,2,4-triazol-3-one] | > 10 |  | 0 (0% inhibition) | 0 (0% inhibition) | 1 to 25 |
| COc1cccc(Nc2nc(-c3nccn3C)nc3sc(-c4ccn(C(C)C)n4)c(C)c23)c1 [Compound 64, 6-(1-Isopropyl-1H-pyrazol-3-yl)-N-(3-methoxyphenyl)-5-methyl-2-(1-methyl-1H-imidazol-2-yl)thieno[2,3-d]pyrimidin-4-amine] | 5 to 10 |  | B (26-50% inhibition) | D (76-100% inhibition) | 76 to 100 |
| COc1cccc(Nc2nc(-c3nccn3C)nc3sc(-c4ccn(C(C)C)n4)c(C)c23)n1.Cl [Compound 65, 6-(1-Isopropyl-1H-pyrazol-3-yl)-N-(6-methoxypyridin-2-yl)-5-methyl-2-(1-methyl-1H-imidazol-2-yl)thieno[2,3-d]pyrimidin-4-amine hydrochloride salt] | 5 to 10 |  | B (26-50% inhibition) | D (76-100% inhibition) | 76 to 100 |
| COc1cc(Nc2nc(-c3nccn3C)nc3sc(-c4ccn(C(C)C)n4)c(C)c23)ncn1 [Compound 66, 6-(1-Isopropyl-1H-pyrazol-3-yl)-N-(6-methoxypyrimidin-4-yl)-5-methyl-2-(1-methyl-1H-imidazol-2-yl)thieno[2,3-d]pyrimidin-4-amine] | < 1 |  | B (26-50% inhibition) | 0 (0% inhibition) | 76 to 100 |
| COc1cc(Nc2nc(-c3nccn3C)nc3sc(-c4ccn(C(C)C)n4)c(C)c23)ccn1 [Compound 67, 6-(1-Isopropyl-1H-pyrazol-3-yl)-N-(2-methoxypyridin-4-yl)-5-methyl-2-(1-methyl-1H-imidazol-2-yl)thieno[2,3-d]pyrimidin-4-amine] | 5 to 10 |  | <A> | 0 (0% inhibition) | 76 to 100 |
| COc1ccnc(Nc2nc(-c3nccn3C)nc3sc(-c4ccn(C(C)C)n4)c(C)c23)n1 [Compound 68, 6-(1-Isopropyl-1H-pyrazol-3-yl)-N-(4-methoxypyrimidin-2-yl)-5-methyl-2-(1-methyl-1H-imidazol-2-yl)thieno[2,3-d]pyrimidin-4-amine] | 1 to 4.99 |  | <A> | C (51-75% inhibition) | 76 to 100 |
| Cc1c(-c2ccn(C(C)C)n2)sc2nc(-c3ccccn3)nc(N3CCC(COC(C)C)C3)c12 (centres unmarked) [Compound 72, 4-(3-(Isopropoxymethyl)pyrrolidin-1-yl)-6-(1-isopropyl-1H-pyrazol-3-yl)-5-methyl-2-(pyridin-2-yl)thieno[2,3-d]pyrimidine] | 5 to 10 |  | B (26-50% inhibition) | D (76-100% inhibition) | 51 to 75 |

Continued, in another order:

| IC50 ([3]; MIA PaCa-2, MIA PaCa-2) [µM] | IC50 ([3]; MIA PaCa-2, MIA-PaCa-2, 2-4 days, 10% FBS) [µM] | SMILES | % inh of AKT phosphorylation in PANC-1 [1] | % inh of ERK1/2 phosphorylation in PANC-1 [2] | inhibition at 10 µM [3] [%] |
| --- | --- | --- | --- | --- | --- |
| 5 to 10 |  | COCCn1cnc(-c2nc(O)c3scc(-c4ccccn4)c3n2)c1 [Compound 78, 2-(1-(2-Methoxyethyl)-1H-imidazol-4-yl)-7-(pyridin-2-yl)thieno[3,2-d]pyrimidin-4-ol] | 0 (0% inhibition) | 0 (0% inhibition) | 51 to 75 |
| 1 to 4.99 |  | COCCCn1ccnc1-c1nc(O)c2scc(-c3ccccn3)c2n1 [Compound 79, 2-(1-(3-Methoxypropyl)-1H-imidazol-2-yl)-7-(pyridin-2-yl)thieno[3,2-d]pyrimidin-4-ol] | <B> | 0 (0% inhibition) | 76 to 100 |
| 1 to 4.99 |  | CCOCCn1ccnc1-c1nc(O)c2scc(-c3ccccn3)c2n1 [Compound 80, 2-(1-(2-Ethoxyethyl)-1H-imidazol-2-yl)-7-(pyridin-2-yl)thieno[3,2-d]pyrimidin-4-ol] | <D> | A (1-25% inhibition) | 76 to 100 |
| 1 to 4.99 |  | Oc1nc(-c2nccn2CCOCC(F)(F)F)nc2c(-c3ccccn3)csc12 [Compound 81, 7-(Pyridin-2-yl)-2-(1-(2-(2,2,2-trifluoroethoxy)ethyl)-1H-imidazol-2-yl)thieno[3,2-d]pyrimidin-4-ol] | <D> | B (26-50% inhibition) | 76 to 100 |
| 1 to 4.99 |  | CC(C)OCCn1ccnc1-c1nc(O)c2scc(-c3ccccn3)c2n1 [Compound 82, 2-(1-(2-Isopropoxyethyl)-1H-imidazol-2-yl)-7-(pyridin-2-yl)thieno[3,2-d]pyrimidin-4-ol] | <D> | A (1-25% inhibition) | 76 to 100 |
| 5 to 10 |  | Oc1nc(-c2nccn2CCOCc2ccccc2)nc2c(-c3ccccn3)csc12 [Compound 83, 2-(1-(2-(Benzyloxy)ethyl)-1H-imidazol-2-yl)-7-(pyridin-2-yl)thieno[3,2-d]pyrimidin-4-ol] | <D> | B (26-50% inhibition) | 76 to 100 |
| 5 to 10 |  | COc1cccn2c(-c3nc(O)c4scc(-c5ccccn5)c4n3)ncc12 [Compound 84, 2-(8-Methoxyimidazo[1,5-a]pyridin-3-yl)-7-(pyridin-2-yl)thieno[3,2-d]pyrimidin-4-ol] | A (1-25% inhibition) | 0 (0% inhibition) | 51 to 75 |
| > 10 |  | CO[C@H]1C[C@@H](Nc2nc(-c3nccn3C)nc3sc(-c4ccn(C(C)C)n4)c(C)c23)C1 [Compound 96, 6-(1-isopropyl-1H-pyrazol-3-yl)-N-((1s,3s)-3-methoxycyclobutyl)-5-methyl-2-(1-methyl-1H-imidazol-2-yl)thieno[2,3-d]pyrimidin-4-amine] | 0 (0% inhibition) | B (26-50% inhibition) | 1 to 25 |
| < 1 | < 0.4 | CO[C@@H]1CC[C@H](Nc2nc(-c3nccn3C)nc3sc(-c4ccn(C(C)C)n4)c(-c4ccccc4)c23)C1 [Example 4, 6-(1-isopropyl-1H-pyrazol-3-yl)-N-((1S,3R)-3-methoxycyclopentyl)-2-(1-methyl-1H-imidazol-2-yl)-5-phenylthieno[2,3-d]pyrimidin-4-amine] | D (76-100% inhibition) | D (76-100% inhibition) | 76 to 100 |
